Assay results reported in patent publication US20040121962A1, “Prodrugs of excitatory amino acids” (priority 2001, published 2004).

What was measured:
[1] = target: mGlu2/3 receptors in rat forebrain membranes; conditions: read-out: Displacement of 3H-LY341495 binding (Ki, nM) (mean ± S.E., N = 3)
Protocol: (§1) To study the ability to affect receptor binding of compounds of the present invention in comparison to LY354740, displacement of a high affinity mGluR2 antagonist radioligand [^3H]LY341495 to cell membranes from human mGluR2, human mGluR3, and native rat brain tissues was determined.

[2] = target: T1, human mGluR3 (Homo sapiens, UniProt Q14832); assay: Displacement of [3H]LY341495 binding to cell membranes, human mGluR3; conditions: read-out: Displacement of 3H-LY341495 binding (Ki, nM) (mean ± S.E., N = 3)
T1 construct: expressed in transfected cells
T1 sequence (Q14832 23-879): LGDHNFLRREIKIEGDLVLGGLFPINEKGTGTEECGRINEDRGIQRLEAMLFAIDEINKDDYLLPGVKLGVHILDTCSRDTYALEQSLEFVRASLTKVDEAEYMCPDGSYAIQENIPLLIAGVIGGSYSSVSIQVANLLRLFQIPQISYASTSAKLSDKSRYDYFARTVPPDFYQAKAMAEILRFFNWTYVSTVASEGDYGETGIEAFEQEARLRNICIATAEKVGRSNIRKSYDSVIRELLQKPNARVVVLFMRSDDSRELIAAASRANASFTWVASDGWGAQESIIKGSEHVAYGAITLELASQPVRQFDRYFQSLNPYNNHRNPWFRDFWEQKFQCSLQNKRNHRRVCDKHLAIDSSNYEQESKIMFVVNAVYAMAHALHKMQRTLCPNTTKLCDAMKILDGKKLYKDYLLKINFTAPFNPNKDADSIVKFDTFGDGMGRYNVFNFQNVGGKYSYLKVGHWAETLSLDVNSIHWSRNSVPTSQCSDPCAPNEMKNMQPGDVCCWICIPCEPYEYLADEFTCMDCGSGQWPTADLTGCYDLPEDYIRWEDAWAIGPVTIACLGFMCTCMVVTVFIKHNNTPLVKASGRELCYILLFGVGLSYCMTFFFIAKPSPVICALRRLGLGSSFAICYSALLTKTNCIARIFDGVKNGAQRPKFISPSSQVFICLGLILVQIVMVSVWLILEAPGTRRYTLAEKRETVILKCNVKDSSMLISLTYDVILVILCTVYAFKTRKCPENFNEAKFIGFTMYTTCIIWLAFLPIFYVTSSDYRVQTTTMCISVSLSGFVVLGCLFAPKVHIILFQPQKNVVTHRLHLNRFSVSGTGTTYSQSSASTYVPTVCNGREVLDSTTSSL
Protocol: as §1

[3] = target: T2, human mGluR2 (Homo sapiens, UniProt Q14416); assay: Displacement of [3H]LY341495 binding to cell membranes, human mGluR2; conditions: read-out: Displacement of 3H-LY341495 binding (Ki, nM) (mean ± S.E., N = 3)
T2 construct: expressed in transfected cells
T2 sequence (Q14416 19-872): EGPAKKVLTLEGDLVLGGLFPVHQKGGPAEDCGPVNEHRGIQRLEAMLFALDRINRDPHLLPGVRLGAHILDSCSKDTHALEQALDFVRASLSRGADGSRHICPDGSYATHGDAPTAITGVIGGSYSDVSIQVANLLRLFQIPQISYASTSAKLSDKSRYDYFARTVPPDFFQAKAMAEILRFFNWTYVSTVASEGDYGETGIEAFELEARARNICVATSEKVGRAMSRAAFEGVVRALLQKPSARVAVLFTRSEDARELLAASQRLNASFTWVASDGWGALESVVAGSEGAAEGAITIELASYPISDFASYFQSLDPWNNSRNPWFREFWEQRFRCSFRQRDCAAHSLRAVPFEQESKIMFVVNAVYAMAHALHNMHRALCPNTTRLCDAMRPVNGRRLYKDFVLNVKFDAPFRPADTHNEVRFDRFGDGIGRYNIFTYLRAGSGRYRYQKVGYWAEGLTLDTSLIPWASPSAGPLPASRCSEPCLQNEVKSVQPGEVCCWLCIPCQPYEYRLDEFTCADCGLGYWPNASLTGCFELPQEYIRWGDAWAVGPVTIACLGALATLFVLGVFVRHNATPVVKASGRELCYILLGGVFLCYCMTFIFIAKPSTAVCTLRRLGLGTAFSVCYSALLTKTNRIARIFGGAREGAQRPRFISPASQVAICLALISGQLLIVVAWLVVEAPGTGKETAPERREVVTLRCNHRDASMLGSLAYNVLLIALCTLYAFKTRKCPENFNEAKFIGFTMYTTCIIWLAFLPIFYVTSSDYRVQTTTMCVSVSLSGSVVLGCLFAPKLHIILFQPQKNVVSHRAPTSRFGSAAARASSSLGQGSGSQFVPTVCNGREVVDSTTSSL
Protocol: as §1

[4] = tested on: fear-potentiated startle (mGlu2/3 receptor linked); assay: Rat fear-potentiated startle anxiety model; format: in vivo; conditions: for MED (1 hour pre-treatement): fed rats, oral, 1 hour pre-treatment
Text: This model was specifically chosen, as it is highly sensitive to mGlu2/3 agonists such as LY354740 and compounds of the present invention. (See, Helton […]., Monn […]., and Kallman M. J., Anxiolytic and side-effect profile of LY354740: A potent, high selective, orally active agonist for group II metabotropic glutamate receptors, J. Pharmacol. Exp. Ther. 284: 651-660 (1998)). To verify that the actions of a compound of formula I in this model were mGlu2/3 receptor mediated, as has been shown previously for LY354740 (See, […]., Ornstein P. L., Monn J. A., and Schoepp D. D., Actions of mGlu receptor agonists on fear-conditioning versus fear-expression in rats, Neuropharmacology, 38:[…] (#144) (1999)), the ability of LY341495 (an mGlu2/3 receptor antagonist) (See, Kingston A. E., Ornstein P. L., Wright R. A., Johnson […]., Burnett […]., Wu S., and Schoepp D. […] As a positive control in each experiment, diazepam (0.6 mg/kg i.p.) was used. All experiments were performed in fed rats. In the fear potentiated startle model, animals are exposed to a neutral stimulus such as light (conditioned stimulus) with an aversive stimulus such as a shock (unconditioned stimulus). Following conditioning, when the animals are presented with a loud acoustic stimulus, larger startle responses are elicited when the startle stimulus is preceded by light. Male Long Evans rats (180-400 g) or male NIH Swiss mice (18-35 g) were obtained from Harlan Sprague-Dawley, Cumberland, Ind., USA and acclimated at least 3 days before testing. Animals were housed at 23±2° C. (relative humidity 30% to 70%) and given Purina Certified Rodent Chow and water ad libitum. The photoperiod was 12 hours of light and 12 hours of dark, with dark onset at approximately 1800 hours. Test compounds were dissolved in a vehicle of purified water and neutralized with 5 N NaOH to a pH of 7-8 when applicable. Diazepam (Sigma Chemical Company, St. […] Control animals received the respective vehicle. […]

Ki [1]	Ki [2]	Ki [3]	Compound	MED (1 hour pre-treatement) [4]	oral potency in the treatment of anxiety ([4]; preclinical studies)
80 ± 7.3 nM	126 ± 4.8 nM	84.7 ± 11.1 nM	NC1(C(=O)O)CCC2C(C(=O)O)C21 (single isomer, unassigned; (+)) [LY354740, (+)-2-aminobicyclo[3.1.0]hexane-2,6-dicarboxylic acid]	3.0 mg/kg p.o.	
			C[C@H](N)C(=O)N[C@@]1(C(=O)O)CC[C@H]2[C@H](C(=O)O)[C@H]21.Cl [Example 3, (1S,2S,5R,6S)-2-[(2′S)-(2′-Amino)-propionyl]amino-bicyclo[3.1.0]hexane-2,6-dicarboxylic acid hydrochloride]		greatly enhanced oral potency
	> 10000 nM	> 10000 nM	C[C@H](N)C(=O)N[C@@]1(C(=O)O)CC[C@H]2[C@H](C(=O)O)[C@H]21 [Formula I, (1S,2S,5R,6S)-2-[(2′S)-(2′-Amino)-propionyl]amino-bicyclo[3.1.0]hexane-2,6-dicarboxylic acid]	0.01 mg/kg p.o.	
